Reference: ChEMBL document CHEMBL1145540, “Zidovudine inhibits thymidine phosphorylation in the isolated perfused rat heart” (Antimicrob Agents Chemother, 2007)

Tested on: Heart
Assay: Inhibition of [3H]thymidine phosphorylation in isolated perfused Sprague-Dawley rat heart after 30 mins
Assay type: functional, tissue-based

IC50: 24.4 µM
Compound: Cc1cn([C@H]2C[C@H](N=[N+]=[N-])[C@@H](CO)O2)c(=O)[nH]c1=O [ZIDOVUDINE]
